The values that follow are results of earlier work, collected in patent publication US20260216230A1, “SERRATIA ANTICANCER POLYSACCHARIDE COMPOSITIONS AND METHODS” (Board of Supervisors of Louisiana State University and …, priority 2023, published 2026).

For this data set, the system named is refractory Stage 4 patients. As to conditions: phase I.

As to `CC(=O)O[C@H]1C(=O)[C@@]2(C)[C@H]([C@H](OC(=O)c3ccccc3)[C@]3(O)C[C@H](OC(=O)[C@H](O)[C@@H](NC(=O)c4ccccc4)c4ccccc4)C(C)=C1C3(C)C)[C@]1(OC(C)=O)CO[C@@H]1C[C@@H]2O` [Taxol], the effectivity was 12%.
